Source: ChEMBL document CHEMBL1201862, “PubChem BioAssay data set” (2004)
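Each compound was tested at five concentrations against cells in 96-well plates for 48 hours. The concentration for 50% growth inhibition is given as GI50.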 The source made the active and inactive calls. Cut-off read from the data, not from the text of the source: active = GI50 up to about 1.1 µM and inactive = higher.

Legend:
Assay in all cases: NCI anticancer screen, dose series, 48 h
[1] = system: OVCAR-3
[2] = system: TK-10
[3] = system: OVCAR-5
[4] = system: K562
[5] = system: KM12
[6] = system: HCT-116
[7] = system: LOX IMVI
[8] = system: 786-0
[9] = system: T47D
[10] = system: SW-620
[11] = system: PC-3
[12] = system: SF-539
[13] = system: SK-MEL-28
[14] = system: HT-29
[15] = system: HOP-92
[16] = system: MCF7
[17] = system: MDA-N
[18] = system: HOP-62
[19] = system: EKVX
[20] = system: UO-31

Measured: GI50

Clc1ccccc1-c1nnc2c(-c3ccccc3)nc3ccccc3n12
inactive: [1] > 100 µM | [2] > 100 µM | [3] > 100 µM | [4] > 100 µM | [5] > 100 µM | [6] > 100 µM | [7] > 100 µM | [8] 40.9 µM | [9] 5.93 µM | [10] > 100 µM | [11] > 100 µM | [12] > 100 µM | [13] > 100 µM | [14] 47.3 µM | [15] > 100 µM | [16] 92 µM | [17] 96.6 µM | [18] 69.3 µM | [19] > 100 µM | [20] 2.07 µM

CC1=NN(C(=O)c2ccncc2)C(=O)C1
inactive: [1] > 100 µM | [2] > 100 µM | [3] > 100 µM | [4] > 100 µM | [5] > 100 µM | [6] > 100 µM | [7] > 100 µM | [8] > 100 µM | [9] > 100 µM | [10] > 100 µM | [11] > 100 µM | [12] > 100 µM | [13] > 100 µM | [14] > 100 µM | [15] > 100 µM | [16] > 100 µM | [17] > 100 µM | [18] > 100 µM | [19] > 100 µM | [20] > 100 µM
